We go through four compounds from patent publication US4798833A, “Guanine derivative” (priority 1983, dated 1989).

The term Ki denotes a measure of affinity in units of concentration, obtained from inhibition or displacement.

In one data set the test system is HSV-1 (C42). In words: Systemic (i.p.) HSV-1 infection in mice. It counts as in vivo. The settings on record: treated animals.
A further data set addresses HSV-1 thymidine kinase (Human herpesvirus 1, UniProt P0DTH5). Description: biochemical. The settings on record: for Ki: HSV-1 thymidine kinase, read-out: Inhibition constant Ki.
The next data set deals with HSV-2 (strain 91075). Description: Systemic (i.p.) HSV-2 infection in mice. It is filed as in vivo. The settings on record: treated animals.
Data set [1] deals with HSV-1 (strain C42). Description: Plaque reduction assay, inhibition of HSV-1 multiplication in HEL cells. It counts as cell-based, Herpes simplex type 1 virus. The conditions noted are these: Human alphaherpesvirus 1, HEL (human embryonic lung) cells, read-out: HSV-1 in HEL cells ID50. Background: Plaque reduction counts the foci of infection that form in a cell layer.
The nature of data set [2]: Cellular toxicity, reduction in growth of human embryonic cells. The settings on record: flow 1000 cells.
A further data set has as its system VZV (several strains). Description: Inhibition of VZV multiplication in HL cells, late antigens by ELISA. It is filed as cell-based, Varicella zoster virus. The protocol: I. Inhibition of virus multiplication in cell cultures
Virol. 2 357 (1968). The effect on VZV (several strains) multiplication in HL (human lung fibroblast) cells by VSA 671 was determined by measuring the formation of late antigens by the ELISA technique as described by B. Wahren et al., J. Virological Methods 6, 141-149 (1983).
(ELISA stands for enzyme-linked immunosorbent assay.)

The test system of data set [3] is HSV-1 (strain C42). Description: Plaque reduction assay, inhibition of HSV-1 multiplication in Vero cells. The conditions noted are these: read-out: Inhibition (%)/Conc. (μM), HSV-1 in Vero cells; for inhibition at 1 µM: Human alphaherpesvirus 1, 1 μM. It is filed as cell-based, Herpes simplex type 1 virus.
For data set [4], the system named is cutaneous herpesvirus infection. In words: Cutaneous herpesvirus infection on guinea pigs, topical treatment. It counts as in vivo. The protocol: Thirty μl of solution or solvent was added topically 3 times per day for 4 days starting 24 h post inoculation.
The mark [5] stands for this setting: 25 mg/kg i.p. twice daily 5 days, untreated 90, 21 days.
Setting [6] is: 50 mg/kg i.p. twice daily 5 days, untreated 90, 21 days.

Chain of HSV-1 thymidine kinase (P0DTH5 whole entry): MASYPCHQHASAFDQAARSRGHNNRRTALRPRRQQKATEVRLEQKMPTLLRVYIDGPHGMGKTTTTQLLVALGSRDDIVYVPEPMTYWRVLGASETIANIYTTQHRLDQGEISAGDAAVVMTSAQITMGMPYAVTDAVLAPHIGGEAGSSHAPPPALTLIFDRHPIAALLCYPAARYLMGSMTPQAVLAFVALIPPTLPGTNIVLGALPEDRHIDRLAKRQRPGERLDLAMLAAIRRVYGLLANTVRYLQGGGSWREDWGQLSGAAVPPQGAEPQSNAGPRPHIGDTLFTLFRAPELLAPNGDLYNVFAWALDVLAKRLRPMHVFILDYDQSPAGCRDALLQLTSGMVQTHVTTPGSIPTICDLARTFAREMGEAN

On to `Nc1nc2c(ncn2CC(CO)CCO)c(=O)[nH]1` (stereo not drawn) [VSA 671, 9-[4-hydroxy-2-(hydroxymethyl)butyl]guanine], for which the “Cumulative mortality (%) (treated/untreated)” value in the data set on HSV-1 (C42) (setting [5]) was found to be 30%; with HSV-1 (C42) (setting [6]), 30%; with HSV-2 (strain 91075) (setting [5]), 40%; in the data set on HSV-2 (strain 91075) (setting [6]) it was 30%. For the same compound, the “Affinity for viral thymidine kinase (in words)” value at HSV-1 thymidine kinase is recorded as “affinity close to that of the natural substrate, thymidine”. In addition, on HSV-1 thymidine kinase, the Ki stood at 600 nM. In addition, the IC50 was 200 nM in the data set with HSV-1 (strain C42) [1] and 1300 to 2500 nM in the data set with VZV (several strains) (Human alphaherpesvirus 3, HL (human lung fibroblast) cells, several strains, late antigens by ELISA, read-out: VZV in HL cells ID50). For the same compound, in data set [2], the inhibition at 48 h, 200 µM was found to be 18%. The “Effect against varicella zoster virus multiplication” value in the data set with VZV (several strains) (in words) is recorded as “very good effect against varicella zoster virus multiplication”. In addition, in the data set with HSV-1 (strain C42) [3], the inhibition at 1 µM is greater than 90%.

In the case of `Nc1nc2c(ncn2CCC(CO)CO)c(=O)[nH]1` [VIS 873, 9-[4-hydroxy-3-(hydroxymethyl)butyl]guanine], the “Cumulative mortality (%) (treated/untreated)” value in the data set on HSV-1 (C42) (5 mg/kg i.p. twice daily 5 days, untreated 80, 21 days) was 30%; in the data set with HSV-1 (C42) (10 mg/kg i.p. twice daily 5 days, untreated 80, 21 days), 0%; in the data set on HSV-2 (strain 91075) (5 mg/kg i.p. twice daily 5 days, untreated 90, 21 days), 70%; in the data set with HSV-2 (strain 91075) (10 mg/kg i.p. twice daily 5 days, untreated 90, 21 days) it was 20%; with HSV-2 (strain 91075) (setting [5]) it was 0%; in the data set with HSV-2 (strain 91075) (50 mg/kg i.p. twice daily 5 days, untreated 100, 21 days), 10%. Moreover, the Ki on HSV-1 thymidine kinase turned out to be 1500 nM. Also, the IC50 in the data set on HSV-1 (strain C42) [1] turned out to be 400 nM. The compound further showed an inhibition at 48 h, 200 µM in data set [2] of 7%. Also, the “Percent reduction in cumulative score as compared to placebo treatment” value in data set [4] (2.5% in dimethylsulfoxide, 30 μl topically 3 times per day for 4 days starting 24 h post inoculation) is on record as 36%. Besides, the “Therapeutic effect on cutaneous herpesvirus infections (in words)” value in data set [4] (topical) is on record as “had a therapeutic effect on cutaneous herpesvirus infections when applied topically”. The inhibition at 1 µM in the data set on HSV-1 (strain C42) [3] is greater than 90%.

On to `Nc1nc2c(ncn2C/C=C\CO)c(=O)[nH]1` [VSA 151, cis-9-(4-hydroxy-2-butenyl)guanine], for which the Ki at HSV-1 thymidine kinase was found to be 7000 nM. In the data set with HSV-1 (strain C42) [1], the IC50 stood at 600 nM. In data set [2], this compound had an inhibition at 48 h, 200 µM of 0%. In addition, the inhibition at 10 µM in the data set on HSV-1 (strain C42) [3] (Human alphaherpesvirus 1, 10 μM) is greater than 90%.

Consider `Nc1nc2c(ncn2CC=C(CO)CO)c(=O)[nH]1` [VSA 668, 9-[4-hydroxy-3-(hydroxymethyl)-2-butenyl]guanine], for which the Ki at HSV-1 thymidine kinase was found to be 25000 nM. In addition, in data set [2], the inhibition at 48 h, 200 µM is 0%. The inhibition at 25 µM with HSV-1 (strain C42) [3] (Human alphaherpesvirus 1, 25 μM) is greater than 90%.
